Consider 24 compounds from patent publication US20100197591A1, “4-AMINO-7,8-DIHYDROPYRIDO[4,3-d]PYRIMIDIN-5(6H)-ONE DERIVATIVES” (pfizer Inc, priority 2009, published 2010).

For this experiment, the target named is T1, Human full-length diacylglycerol:acylCoA acyltransferase 1 (DGAT-1) (Homo sapiens, UniProt O75907).
T1 construct: Human full-length diacylglycerol:acylCoA acyltransferase 1 (DGAT-1) was expressed in Sf9 insect cells; made in house; host or cells: Sf9 insect cells (baculovirus); crude membrane/microsome fraction
T1 sequence (O75907 1-488): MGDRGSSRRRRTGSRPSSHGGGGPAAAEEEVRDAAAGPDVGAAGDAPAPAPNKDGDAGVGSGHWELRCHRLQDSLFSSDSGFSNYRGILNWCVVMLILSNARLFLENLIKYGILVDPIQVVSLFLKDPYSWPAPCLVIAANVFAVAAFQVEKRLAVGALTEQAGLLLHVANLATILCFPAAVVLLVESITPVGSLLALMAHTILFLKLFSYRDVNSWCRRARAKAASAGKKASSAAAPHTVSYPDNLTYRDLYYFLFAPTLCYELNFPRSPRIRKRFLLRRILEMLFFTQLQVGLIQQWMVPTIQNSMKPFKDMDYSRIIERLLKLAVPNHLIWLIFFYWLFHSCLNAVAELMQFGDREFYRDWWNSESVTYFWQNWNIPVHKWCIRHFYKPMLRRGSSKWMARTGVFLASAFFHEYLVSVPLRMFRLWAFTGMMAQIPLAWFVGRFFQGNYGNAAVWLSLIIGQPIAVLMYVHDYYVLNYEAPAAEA
The experiment can be described thus: DGAT-1 Reduced Microsome Multidose Assay, G7329F Human IC50. The format is biochemical. The following applies: crude membrane fraction of Sf9 cells expressing human DGAT-1; [14C]decanoylCoA; apparent IC50, average where tested more than once. The protocol:
Human full-length diacylglycerol:acylCoA acyltransferase 1 (DGAT-1) was expressed in Sf9 insect cells which are then lysed and a crude membrane fraction (105,000×g pellet) was prepared. The DGAT-1 gene is a human DGAT-1 gene described in J Biol Chem 273:26765 (1998) and U.S. Pat. No. 6,100,077.
In vitro inhibition of DGAT-1 was measured using a modification, further described below, of the assay methodology described in U.S. Pat. No. 6,994,956 B2.
The cells were cultured as follows. Sf9 cells (20 L) were infected with 4 mL of DGAT-1 Baculovirus Infected Insect Cells (BIIC) for 72 hours in a Wave Bioreactor System 20/50P (Wave Biotec/GE Healthcare).
Crude DGAT-1 microsomes were prepared as follows. Cell pellets were washed once with ice-cold Dulbecco's phosphate-buffered saline. Cells were collected in tabletop centrifuge (Beckman GS-6KR), 15 minutes, 2000×g, 4° C. Twenty (20) mL of ice-cold Microsome Buffer (MB) was added per 5 g of cell pellet. The suspension was passed through a microfluidizer 3 times (18K psi). The lysate was transferred to centrifuge tubes and centrifuged for 20 minutes at 5000×g (Beckman-Coulter, Inc. Allegra® 64R High-Speed Refrigerated Benchtop Centrifuge, F0650 rotor) at 4° C. The supernatant was transferred to ultracentrifuge tubes and centrifuged at 125,000×g for 1 hour in a Beckman Ti-45 rotor, 4° C. The supernatant fluid was discarded. The pellet was resuspended in 70 mL of MB by sonication. The microsome concentration was determined using Bio-Rad Protein DC Protein Assay. The microsomes were filter sterilized with a 0.22 μm filter. The samples were portioned, flash frozen and stored at −80° C.
The Microsome Buffer, used for microsome preparation, was prepared by conventional means and contained 125 mM sucrose, 3 mM imidazole, 0.2 μg/mL aprotinin, 0.2 μg/mL leupeptin and 5 mM dithiothreitol (Cleland's reagent), DGAT-1 activity was measured in 384-well format in a total assay volume of 25 μl that contained, Hepes buffer (50 mM, pH 7.5), MgCl2 (10 mM), bovine serum albumin (0.6 mg/ml), [^14C]decanoylCoA (20 μM, 58 Ci/mol) and membranes (25 μg/ml) into which 1,2 dioleoyl-sn-glycerol (75 μM) in acetone has already been incorporated. Inhibitors in DMSO were pre-incubated with membranes before initiating the DGAT-1 reaction by the addition of decanoylCoA. […] The DMSO concentration was 2.5%. The inhibitors were present at a range of eight concentrations to generate an apparent IC50 for each compound. The eight inhibitor concentration employed ranged from 10 μM to 3 nM (from high to low concentration). Specifically, the eight concentrations used were 10 μM, 3 μM, 1 μM, 300 nM, 100 nM, 30 nM, 10 nM and 3 nM.
Reaction mixtures were neutralized by the addition of 15 μl of tris(hydroxy-methyl)aminomethane (1M, pH 8.0) and then mixed by trituration with 37.5 μl of Microscint™-E (Perkin Elmer). Plates contents were allowed to partition for 15 to 30 min before ^14C was measured in a scintillation spectrometer (Wallac Microbeta Trilux 1450-030 liquid scintillation counter 12 detector in the top-count DPM mode). Percent inhibition of test compounds was computed as […].
Four separate assays were performed using 4 different methods of analysis. The method of analysis of Assay 1 was the same as Assay 4 (described above) except microsomes were utilized at 25 μg/mL instead of 5 μg/mL. The method of analysis of Assay 2 was the same as Assay 4 (described above) except eleven (11) concentrations of inhibitor were employed instead of eight (8). The method of analysis of Assay 3 was the same as Assay 2 except the compounds were serially diluted in a different laboratory.
Where this DGAT-1 inhibition assay was performed on a compound more than once, an average is provided for that compound.
Turning to `COc1nc(N)c2c(n1)CCN(c1ccc(OC(F)(F)F)cc1)C2=O` [Example 1A, 4-amino-2-methoxy-6-[4-(trifluoromethoxy)phenyl]-7,8-dihydropyrido[4,3-d]pyrimidin-5(6H)-one], the IC50 is 90.4 nM.
The value for `CCc1ccc(N2CCc3nc(OC)nc(N)c3C2=O)cc1` [Example 1B, 4-amino-6-(4-ethylphenyl)-2-methoxy-7,8-dihydropyrido[4,3-d]pyrimidin-5(6H)-one] was 52.7 nM; that for `COc1nc(N)c2c(n1)CCN(c1ccc(CC3CC3)cc1)C2=O` [Example 1C, 4-amino-6-[4-(cyclopropylmethyl)phenyl]-2-methoxy-7,8-dihydropyrido[4,3-d]pyrimidin-5(6H)-one] was 11 nM.
For the compound `COc1nc(N)c2c(n1)CCN(c1ccc3c(c1)CCC3)C2=O` [Example 1D, 4-amino-6-(2,3-dihydro-1H-inden-5-yl)-2-methoxy-7,8-dihydropyrido[4,3-d]pyrimidin-5(6H)-one], the IC50 stood at 40.4 nM.
The same measure for `COc1nc(N)c2c(n1)CCN(c1ccc(C3CC3)cc1)C2=O` [Example 1E, 4-amino-6-(4-cyclopropylphenyl)-2-methoxy-7,8-dihydropyrido[4,3-d]pyrimidin-5(6H)-one]: 28.8 nM.
As for `COc1nc(N)c2c(n1)CCN(c1ccc(C(C)C)c(F)c1)C2=O` [Example 1G, 4-amino-6-(3-fluoro-4-isopropylphenyl)-2-methoxy-7,8-dihydropyrido[4,3-d]pyrimidin-5(6H)-one], the IC50 was found to be 9.66 nM.
The value for `COc1nc(N)c2c(n1)CCN(c1ccc(C3CC(F)(F)C3)cc1)C2=O` [Example 1H, 4-amino-6-[4-(3,3-difluorocyclobutyl)phenyl]-2-methoxy-7,8-dihydropyrido[4,3-d]pyrimidin-5(6H)-one] was 57.6 nM; that for `COc1nc(N)c2c(n1)CCN(c1ccc([C@H]3C[C@H](O)C3)cc1)C2=O` [Example 1I, 4-amino-6-[4-(trans-3-hydroxycyclobutyl)phenyl]-2-methoxy-7,8-dihydropyrido[4,3-d]pyrimidin-5(6H)-one] was 95.8 nM; that for `COc1nc(N)c2c(n1)CCN(c1ccc([C@H]3C[C@@H](O)C3)cc1)C2=O` [Example 1J, 4-amino-6-[4-(cis-3-hydroxycyclobutyl)phenyl]-2-methoxy-7,8-dihydropyrido[4,3-d]pyrimidin-5(6H)-one] was 59.8 nM.
For `COc1nc(N)c2c(n1)CCN(c1ccc(C3(CO)CCC3)cc1)C2=O` [Example 1O, 4-amino-6-{4-[1-(hydroxymethyl)cyclobutyl]phenyl}-2-methoxy-7,8-dihydropyrido[4,3-d]pyrimidin-5(6H)-one], the IC50 was 35.9 nM.
The same measure for `COc1nc(N)c2c(n1)CCN(c1ccc(C3(C(=O)O)CCC3)cc1)C2=O` [Example 1P, 1-[4-(4-amino-2-methoxy-5-oxo-7,8-dihydropyrido[4,3-d]pyrimidin-6(5H)-yl)phenyl]cyclobutanecarboxylic acid]: 67.1 nM; for `COc1nc(N)c2c(n1)CCN(c1ccc(C(C)(C)CO)cc1)C2=O` [Example 1T, 4-amino-6-[4-(2-hydroxy-1,1-dimethylethyl)phenyl]-2-methoxy-7,8-dihydropyrido[4,3-d]pyrimidin-5(6H)-one]: 52.9 nM.
The same measure for `COc1nc(N)c2c(n1)CCN(c1ccc(C(O)(C(F)(F)F)C(F)(F)F)cc1)C2=O` [Example 1X, 4-amino-2-methoxy-6-{4-[2,2,2-trifluoro-1-hydroxy-1-(trifluoromethyl)ethyl]phenyl}-7,8-dihydropyrido[4,3-d]pyrimidin-5(6H)-one]: 5.19 nM; for `COc1nc(N)c2c(n1)CCN(c1ccc(C(O)C(F)(F)F)cc1)C2=O` (stereo not drawn) [Example 1Y, 4-amino-2-methoxy-6-[4-(2,2,2-trifluoro-1-hydroxyethyl)phenyl]-7,8-dihydropyrido[4,3-d]pyrimidin-5(6H)-one]: 46 nM; for `COc1nc(N)c2c(n1)CCN(c1ccc(CC(C)C)cc1)C2=O` [Example 1Z, 4-amino-6-(4-isobutylphenyl)-2-methoxy-7,8-dihydropyrido[4,3-d]pyrimidin-5(6H)-one]: 4.92 nM.
The value for `COC(=O)c1ccc(N2CCc3nc(OC)nc(N)c3C2=O)cc1` [Example 2A, Methyl 4-(4-amino-2-methoxy-5-oxo-7,8-dihydropyrido[4,3-d]pyrimidin-6(5H)-yl)benzoate] was 50.3 nM; that for `COc1nc(N)c2c(n1)CCN(c1ccc(C(C)(C)O)cc1)C2=O` [Example 2B, 4-amino-6-[4-(1-hydroxy-1-methylethyl)phenyl]-2-methoxy-7,8-dihydropyrido[4,3-d]pyrimidin-5(6H)-one] was 177 nM; that for `COc1nc(N)c2c(n1)CCN(c1ccc(C(C)(C)F)cc1)C2=O` [Example 2C, 4-amino-6-[4-(1-fluoro-1-methylethyl)phenyl]-2-methoxy-7,8-dihydropyrido[4,3-d]pyrimidin-5(6H)-one] was 86.6 nM.
With `COc1nc(N)c2c(n1)CCN(c1ccc(C(C)(C)OC)cc1)C2=O` [Example 2D, 4-amino-2-methoxy-6-[4-(1-methoxy-1-methylethyl)phenyl]-7,8-dihydropyrido[4,3-d]pyrimidin-5(6H)-one], the IC50 stood at 34.6 nM.
The same measure for `COc1nc(N)c2c(n1)CCN(c1ccc(C(=O)O)cc1)C2=O` [Example 2E, 4-(4-amino-2-methoxy-5-oxo-7,8-dihydropyrido[4,3-d]pyrimidin-6(5H)-yl)benzoic acid]: 1480 nM; for `COc1nc(N)c2c(n1)CCN(c1ccc(C(=O)OC3CCCCC3)cc1)C2=O` [Example 2G, Cyclohexyl 4-(4-amino-2-methoxy-5-oxo-7,8-dihydropyrido[4,3-d]pyrimidin-6(5H)-yl)benzoate]: 74.4 nM; for `COc1nc(N)c2c(n1)CCN(c1ccc(C(=O)N(C)C)cc1)C2=O` [Example 2H, 4-(4-amino-2-methoxy-5-oxo-7,8-dihydropyrido[4,3-d]pyrimidin-6(5H)-yl)-N,N-dimethylbenzamide]: 1370 nM.
The same measure for `COC(=O)C(C)(C)c1ccc(N2CCc3nc(OC)nc(N)c3C2=O)cc1` [Example 3A, methyl 2-[4-(4-amino-2-methoxy-5-oxo-7,8-dihydropyrido[4,3-d]pyrimidin-6(5H)-yl)phenyl]-2-methylpropanoate]: 13.7 nM.
The same measure for `COc1nc(N)c2c(n1)CCN(c1ccc(C(C)(C)C(=O)O)cc1)C2=O` [Example 3D, 2-[4-(4-amino-2-methoxy-5-oxo-7,8-dihydropyrido[4,3-d]pyrimidin-6(5H)-yl)phenyl]-2-methylpropanoic acid]: 46.2 nM.

Broadly, the IC50 is the point on the concentration scale where inhibition reaches its midpoint.
